{"source": "paper PMC10248530", "about": "“Screening the Thermotoga maritima genome for new wide-spectrum nucleoside and nucleotide kinases” (The Journal of Biological Chemistry, 2023)", "type_in_all_cases": "biochemical", "key": {"[1]": {"biological_target": "T1, TmPK (Thermotoga maritima, UniProt Q9WY51)", "T1 construct": "gene pyk; synthetic gene, full length, expressed in E. coli, 80 °C heat step and Ni-NTA; tag not described", "T1 sequence (Q9WY51 1-466)": "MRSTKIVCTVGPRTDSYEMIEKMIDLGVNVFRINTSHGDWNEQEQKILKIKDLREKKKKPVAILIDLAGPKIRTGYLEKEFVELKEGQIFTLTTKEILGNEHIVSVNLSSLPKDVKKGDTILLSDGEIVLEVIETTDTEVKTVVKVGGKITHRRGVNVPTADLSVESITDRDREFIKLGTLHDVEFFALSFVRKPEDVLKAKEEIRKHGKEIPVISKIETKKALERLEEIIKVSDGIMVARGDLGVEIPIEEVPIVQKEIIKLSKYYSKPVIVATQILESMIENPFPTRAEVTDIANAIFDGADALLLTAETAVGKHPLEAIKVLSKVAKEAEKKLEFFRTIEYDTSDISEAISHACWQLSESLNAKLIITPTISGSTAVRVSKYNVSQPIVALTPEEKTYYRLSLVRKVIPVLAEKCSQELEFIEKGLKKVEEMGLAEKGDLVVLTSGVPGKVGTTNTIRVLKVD", "experiment": "HPLC conversion, […] h", "details": "1 mM substrate, 1.2 mM phosphoenolpyruvate, 2 mM MgCl2, 50 mM KCl, pH 7.6, 37 °C"}, "[2]": {"biological_target": "T2, TmUMPK (Thermotoga maritima, UniProt Q9X1U0)", "T2 construct": "gene pyrH; synthetic gene, full length, expressed in E. coli, 80 °C heat step and Ni-NTA; tag not described", "T2 sequence (Q9X1U0 1-231)": "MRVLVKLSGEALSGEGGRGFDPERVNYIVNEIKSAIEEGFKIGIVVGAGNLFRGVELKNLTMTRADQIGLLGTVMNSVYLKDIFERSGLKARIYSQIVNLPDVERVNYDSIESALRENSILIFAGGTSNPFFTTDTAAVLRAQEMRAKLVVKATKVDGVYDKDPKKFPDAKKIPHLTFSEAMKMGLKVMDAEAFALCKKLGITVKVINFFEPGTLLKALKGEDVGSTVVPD", "experiment": "HPLC conversion, […] h", "details": "1 mM substrate, 1.2 mM ATP, 2 mM MgCl2, 50 mM KCl, 5 mM DTT, Tris pH 7.6, 37 °C"}, "[3]": {"biological_target": "T3, TmTK (Thermotoga maritima, UniProt Q9WYN2)", "T3 construct": "gene tdk; synthetic gene, full length, expressed in E. coli, 80 °C heat step and Ni-NTA; tag not described", "T3 sequence (Q9WYN2 whole entry)": "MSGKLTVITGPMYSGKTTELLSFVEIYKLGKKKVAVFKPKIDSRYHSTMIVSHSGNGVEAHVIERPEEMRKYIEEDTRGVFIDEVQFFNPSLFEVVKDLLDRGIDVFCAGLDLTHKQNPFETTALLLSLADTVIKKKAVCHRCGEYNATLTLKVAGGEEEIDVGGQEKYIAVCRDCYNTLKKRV", "experiment": "HPLC conversion, […] h", "details": "1 mM substrate, 1.2 mM ATP, 2 mM MgCl2, 50 mM KCl, 5 mM DTT, Tris pH 7.6, 37 °C"}, "[4]": {"biological_target": "T4, TmRK (Thermotoga maritima, UniProt Q9X055)", "T4 construct": "gene rbsK; synthetic gene, full length, expressed in E. coli, 80 °C heat step and Ni-NTA; tag not described; PfkB family", "T4 sequence (Q9X055 1-299)": "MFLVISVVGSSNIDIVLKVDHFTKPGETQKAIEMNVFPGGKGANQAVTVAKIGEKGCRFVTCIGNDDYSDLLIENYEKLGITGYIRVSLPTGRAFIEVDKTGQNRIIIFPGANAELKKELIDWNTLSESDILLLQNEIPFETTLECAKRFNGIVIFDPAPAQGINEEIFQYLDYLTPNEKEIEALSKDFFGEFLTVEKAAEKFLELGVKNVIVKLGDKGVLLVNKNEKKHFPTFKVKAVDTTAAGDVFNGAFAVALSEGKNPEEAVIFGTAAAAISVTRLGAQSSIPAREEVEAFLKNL", "experiment": "HPLC conversion, […] h", "details": "1 mM substrate, 1.2 mM ATP, 2 mM MgCl2, 50 mM KCl, 5 mM DTT, Tris pH 7.6, 37 °C"}, "[5]": {"biological_target": "T5, TmGMPK (Thermotoga maritima, UniProt Q9X215)", "T5 construct": "gene gmk; synthetic gene, full length, expressed in E. coli, 80 °C heat step and Ni-NTA; tag not described", "T5 sequence (Q9X215 1-207)": "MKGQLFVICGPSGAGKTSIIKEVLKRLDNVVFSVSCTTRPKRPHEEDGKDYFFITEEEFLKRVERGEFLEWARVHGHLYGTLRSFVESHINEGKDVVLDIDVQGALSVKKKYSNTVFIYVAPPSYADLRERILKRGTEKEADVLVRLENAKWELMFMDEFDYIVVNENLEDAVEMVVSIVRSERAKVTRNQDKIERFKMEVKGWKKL", "experiment": "TLC or HPLC, […] h cascade", "details": "1 mM NMP, 1.2 mM ATP, 5 mM acetyl phosphate with TmAcK (ATP regeneration), 10 mM MgCl2, pH 7.6, 37 °C"}, "[6]": {"biological_target": "T6, TmAMPK (Thermotoga maritima, UniProt Q9X1I8)", "T6 construct": "gene adk; synthetic gene, full length, expressed in E. coli, 80 °C heat step and Ni-NTA; tag not described", "T6 sequence (Q9X1I8 1-220)": "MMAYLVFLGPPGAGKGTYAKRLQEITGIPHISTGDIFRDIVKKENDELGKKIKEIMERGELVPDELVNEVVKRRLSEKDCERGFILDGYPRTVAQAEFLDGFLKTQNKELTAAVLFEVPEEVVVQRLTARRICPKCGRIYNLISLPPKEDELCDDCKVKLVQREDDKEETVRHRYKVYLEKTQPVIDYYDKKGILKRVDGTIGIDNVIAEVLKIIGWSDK", "experiment": "TLC or HPLC, […] h cascade", "details": "1 mM NMP, 1.2 mM ATP, 5 mM acetyl phosphate with TmAcK (ATP regeneration), 10 mM MgCl2, pH 7.6, 37 °C"}, "[7]": {"biological_target": "T7, Tm(d)CMPK (Thermotoga maritima, UniProt Q9X1F6)", "T7 construct": "gene cmk; synthetic gene, full length, expressed in E. coli, 80 °C heat step and Ni-NTA; tag not described", "T7 sequence (Q9X1F6 1-220)": "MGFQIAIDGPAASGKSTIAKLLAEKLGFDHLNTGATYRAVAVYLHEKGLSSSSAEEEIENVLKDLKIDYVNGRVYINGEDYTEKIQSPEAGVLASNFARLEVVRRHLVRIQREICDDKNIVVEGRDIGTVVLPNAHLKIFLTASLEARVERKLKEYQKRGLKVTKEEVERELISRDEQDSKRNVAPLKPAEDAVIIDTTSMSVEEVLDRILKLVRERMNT", "experiment": "TLC or HPLC, […] h cascade", "details": "1 mM NMP, 1.2 mM ATP, 5 mM acetyl phosphate with TmAcK (ATP regeneration), 10 mM MgCl2, pH 7.6, 37 °C"}, "[8]": {"biological_target": "T8, TmAcK (Thermotoga maritima, UniProt Q9WYB1)", "T8 construct": "gene ackA; synthetic gene, full length, expressed in E. coli, 80 °C heat step and Ni-NTA; tag not described", "T8 sequence (Q9WYB1 1-403)": "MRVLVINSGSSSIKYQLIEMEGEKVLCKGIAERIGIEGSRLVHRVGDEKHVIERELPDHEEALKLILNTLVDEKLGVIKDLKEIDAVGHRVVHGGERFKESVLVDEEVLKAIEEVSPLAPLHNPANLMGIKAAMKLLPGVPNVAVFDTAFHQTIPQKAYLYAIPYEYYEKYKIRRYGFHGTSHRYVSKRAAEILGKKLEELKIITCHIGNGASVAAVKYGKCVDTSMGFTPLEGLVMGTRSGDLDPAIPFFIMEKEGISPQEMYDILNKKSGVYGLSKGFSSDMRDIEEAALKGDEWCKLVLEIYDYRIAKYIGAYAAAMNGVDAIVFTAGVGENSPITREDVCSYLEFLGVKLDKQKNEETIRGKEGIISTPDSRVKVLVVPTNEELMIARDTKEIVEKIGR", "experiment": "HPLC conversion, […] h", "details": "1 mM substrate, 1.2 mM acetyl phosphate, 2 mM MgCl2, 50 mM KCl, pH 7.6, 37 °C"}}}
{"smiles": "Nc1nc2c(ncn2[C@@H]2O[C@H](COP(=O)(O)OP(=O)(O)O)[C@@H](O)[C@H]2O)c(=O)[nH]1", "note": "[guanosine 5′-diphosphate]", "values": [{"measurement": "HPLC conversion, 19 h", "setting": "[1]", "result": "TmPK and TmAcK accepted all natural riboNDPs and deoxyriboNDPs"}]}
{"smiles": "Nc1ccn([C@@H]2O[C@H](COP(=O)(O)O)[C@@H](O)[C@H]2O)c(=O)n1", "note": "[cytidine 5′-monophosphate]", "values": [{"measurement": "HPLC conversion, 19 h", "setting": "[2]", "result": "TmUMPK which accepted all natural riboNMPs"}]}
{"smiles": "Cc1cn([C@H]2C[C@H](O)[C@@H](CO)O2)c(=O)[nH]c1=O", "note": "[thymidine]", "values": [{"measurement": "HPLC conversion, 19 h", "setting": "[3]", "result": "TmTK accepted all deoxynucleosides and uridine"}, {"measurement": "HPLC conversion, 19 h", "setting": "[4]", "result": "it phosphorylates the natural nucleosides thymidine and uridine"}]}
{"smiles": "Nc1ncnc2c1ncn2[C@@H]1O[C@H](COP(=O)(O)O)[C@@H](O)[C@@H]1O", "note": "[vidarabine phosphate]", "values": [{"measurement": "TLC or HPLC, 19 h cascade", "setting": "[5]", "result": "TmGMPK phosphorylated the sugar-modified NMPs araGMP, vidarabine phosphate, and araUMP"}]}
{"smiles": "O=c1ccn([C@@H]2O[C@H](CO)[C@@H](O)[C@H]2O)c(=O)[nH]1", "note": "[uridine]", "values": [{"measurement": "HPLC conversion, 19 h", "setting": "[3]", "result": "TmTK accepted all deoxynucleosides and uridine"}, {"measurement": "HPLC conversion, 19 h", "setting": "[4]", "result": "it phosphorylates the natural nucleosides thymidine and uridine"}]}
{"smiles": "O=c1ccn([C@@H]2O[C@H](COP(=O)(O)O)[C@@H](O)[C@H]2O)c(=O)[nH]1", "note": "[uridine 5′-monophosphate]", "values": [{"measurement": "HPLC conversion, 19 h", "setting": "[2]", "result": "TmUMPK which accepted all natural riboNMPs"}]}
{"smiles": "Nc1nc(F)nc2c1ncn2[C@@H]1O[C@H](COP(=O)(O)O)[C@@H](O)[C@@H]1O", "note": "[fludarabine phosphate]", "values": [{"measurement": "TLC or HPLC, 19 h cascade", "setting": "[6]", "result": "For TmAMPK, NTP formation was observed for all AMP analogs"}]}
{"smiles": "Nc1ccn([C@@H]2O[C@H](COP(=O)(O)O)[C@@H](O)[C@@H]2O)c(=O)n1", "note": "[cytarabine phosphate]", "values": [{"measurement": "TLC or HPLC, 19 h cascade", "setting": "[7]", "result": "Tm(d)CMPK converted the sugar-modified substrates araCMP, araGMP, and araUMP"}]}
{"smiles": "O=c1ccn([C@@H]2O[C@H](COP(=O)(O)OP(=O)(O)O)[C@@H](O)[C@H]2O)c(=O)[nH]1", "note": "[uridine 5′-diphosphate]", "values": [{"measurement": "HPLC conversion, 19 h", "setting": "[8]", "result": "TmPK and TmAcK accepted all natural riboNDPs and deoxyriboNDPs"}]}
